Data as given in patent US6930127B2, “Veterinary treatment of ophthalmic disease in animals using topical tacrolimus” (Eaton Veterinary Laboratories, Inc., priority 2002, dated 2005).

Experiments:
[1] = test system: canines with keratoconjunctivitis sicca; test: Clinical trial of topical tacrolimus in treatment of canine keratoconjunctivitis sicca; assay type: in vivo, dogs; details: twice daily, 30 days
Description: A population of canines with keratoconjunctivitis sicca was subject to a method of treatment with a topical tacrolimus solution in order to evaluate the therapeutic effectiveness of the drug. Materials • 0.02% tacrolimus was prepared in a physiologically acceptable ointment base. • 0.02% tacrolimus was prepared in a physiologically acceptable oil base. • Schirmer Tear Test strips were employed to measure tearing. • Petrolatum eye ointment was used for patient comfort. • Commercial eyewash was used as a cleaning solution. The test group consisted of 26 dogs of various breeds from different geographic areas. […] 24 dogs were administered a dose of tacrolimus in either ointment or oil base twice daily in both eyes for 30 days. 2 dogs received the same treatment in only one eye. Petrolatum ointment was administered to some dogs as necessary for comfort. Debris was flushed from the eyes as necessary using a commercial eyewash preparation. The eyes were examined and observations recorded at days 7-14 and again at 21-30 days during treatment.

immune response = details: 'thought to be'; cited from earlier work
[2] = cited from earlier work

C=CC[C@@H]1/C=C(\C)C[C@H](C)C[C@H](OC)[C@H]2O[C@@](O)(C(=O)C(=O)N3CCCC[C@H]3C(=O)O[C@H](/C(C)=C/[C@@H]3CC[C@@H](O)[C@H](OC)C3)[C@H](C)[C@@H](O)CC1=O)[C@H](C)C[C@@H]2OC [Tacrolimus]
signs of ocular irritation ([1]; 0.02% tacrolimus in ointment or oil base, topical): None of the subjects exhibited signs of ocular irritation | treated eyes exhibiting improvement ([1]; 0.02% tacrolimus in ointment or oil base, topical, 26 dogs with KCS): 96% | treated eyes exhibiting improved Schirmer Tear Test (STT) values ([1]; 0.02% tacrolimus in ointment or oil base, topical, 60 second STT): 92% | additional effect: corneal scarring and pigmentation ([1]; 0.02% tacrolimus topical): reduction in corneal scarring and pigmentation | additional effect: inflammation of the conjunctiva ([1]; 0.02% tacrolimus topical): reduction in inflammation of the conjunctiva | effectiveness in dogs, including those where cyclosporine had previously failed ([1]; 0.02% tacrolimus topical): effective in some dogs for whom cyclosporine treatment had previously failed | potency relative to cyclosporine on a per gram basis (immune response): up to 100 times | solubility in alcohols and some oils ([2]; alcohols and some oils): soluble | solubility in water ([2]; water): practically insoluble
